These are literature values, as cited in patent publication US12410178B2, “Small cationic ortho-5,15-di-heteroaryl-porphyrin derivatives and their applications in photoinactivation of microorganisms” (UNIVERSIDADE DE COIMBRA, priority 2019, dated 2025).

The subject of one series is human HeLa cells. Particulars: phototoxicity in vitro; read-out: concentration at which 50% of human HeLa cells are killed; cited from earlier work.
The test system of the next series is flies. Particulars: in vivo; cited from earlier work.

With `CCn1cc[n+](CC)c1C1=c2ccc3[n]2[Zn@]24[n]5c(ccc5C(c5ccccc5)=C5C=CC(=[N+]52)C=3)C=C2C=CC1=[N+]24` [Formula (III), zinc(II) phenylporphinate], the IC50 with human HeLa cells is 1200 nM.

For the compound `C[n+]1ccc(-c2c3nc(c(-c4cc[n+](C)cc4)c4ccc([nH]4)c(-c4ccccc4)c4nc(c(-c5ccccc5)c5ccc2[nH]5)C=C4)C=C3)cc1` [Formula (IV), meso-(di-cis[4-N-methyl-pyridyl]cis-diphenyl-porphyrin)], in the series on flies, the phototoxicity towards flies result is on record as “phototoxic towards flies”.
